Laboratory results reported in article PMC4627230, “Identification of TAX2 peptide as a new unpredicted anti-cancer agent” (Oncotarget, 2015).

How the values were obtained:
[1] = system: HUVECs; assay: Endothelial tube formation assay on matrigel; type: cell-based, human
Method: Figure 2 TAX2 peptide impairs endothelial cell migration and inhibits angiogenesis in vitro and ex vivo A. HUVECs were treated with TAX2 (100 μM) or scrambled peptide (Ctrl, 100 μM). CD47 was immunoprecipitated from total protein lysates using anti-CD47 (clone B6H12) and non-specific IgGs were used as a negative control. Immunocomplexes were then submitted to SDS-PAGE and immunoblotted (IB) using specific TSP-1 and CD47 antibodies. Histogram represents the quantification of co-immunoprecipitated TSP-1 relative to immunoprecipitated CD47. Results are expressed as percentage compared to control (n = 3 separate experiments, t test). B. HUVECs (1 × 10^5 per well) were grown at confluence and then cell proliferation was inhibited by incubating with 10 μg/mL mitomycin C for 2 h. Migration assays were performed for 9 h with or without TAX2 peptide (100 μM), as described in Materials and Methods. Photographs (100×) were taken every 3 h. Graph represents the quantification of the wounded area. Each value is the mean of 3 independent experiments, each performed in quadruplicate. C. HUVECs (5 × 10^4 per well) were plated into the upper compartment of a Transwell membrane and incubated for 12 h in EGM-2 in the presence of 100 μM TAX2 peptide. Hoechst-stained migrating cells attached on outside surface of the top chamber were photographed (20× objective) and counted. Results are expressed as percentage of migrated cells as compared to control. Each value represents the mean of 5 independent experiments, each performed in triplicate.*p < 0.05, compared to control; t test. D. HUVECs (5 × 10^4) were cultured on matrigel layers in control conditions (Ctrl) or in the presence of TAX2. After 8 h incubation, HUVEC tube-like formation was observed on an inverted microscope (40×) and quantification of network total length was done using ImageJ software. Numeration of branching points, tubes and nodal structures was conducted using S.CORE system. Data are expressed as the mean ± SE from at least 3 independent experiments, each performed in triplicate. […] F. Total RNAs were purified from HUVECs transfected with non-silencing siRNA (siCtrl) or siRNA targeting TSP-1 (siTSP-1). The transcriptional level of TSP-1 was assessed by RT-PCR and normalized to β-actin. […] After 6 days incubation in the presence of 100 μM TAX2 or control peptide (Ctrl), images were taken with an inverted microscope (40×) and microvessel area was quantified using ImageJ software. […]
Figure 3 Anti-angiogenic properties of TAX2 are mediated by TSP-1 binding to CD36 A. Expression of CD36 in HUVECs was assessed by immunoblotting (left panel) and immunofluorescence staining (right panel, red). […] The presence of TSP-1 in immunocomplexes was quantified by densitometric analysis relative to immunoprecipitated CD36. […]

[2] = system: microvessel sprouting from mouse aortic rings (C57BL/6); assay: Mouse aortic ring assay (ex vivo); conditions: 100 μM, 6 days, mouse aortic ring in matrigel
Method: Figure 2 TAX2 peptide impairs endothelial cell migration and inhibits angiogenesis in vitro and ex vivo A. HUVECs were treated with TAX2 (100 μM) or scrambled peptide (Ctrl, 100 μM). CD47 was immunoprecipitated from total protein lysates using anti-CD47 (clone B6H12) and non-specific IgGs were used as a negative control. Immunocomplexes were then submitted to SDS-PAGE and immunoblotted (IB) using specific TSP-1 and CD47 antibodies. Histogram represents the quantification of co-immunoprecipitated TSP-1 relative to immunoprecipitated CD47. Results are expressed as percentage compared to control (n = 3 separate experiments, t test). B. HUVECs (1 × 10^5 per well) were grown at confluence and then cell proliferation was inhibited by incubating with 10 μg/mL mitomycin C for 2 h. […] Graph represents the quantification of the wounded area. […] Hoechst-stained migrating cells attached on outside surface of the top chamber were photographed (20× objective) and counted. Results are expressed as percentage of migrated cells as compared to control. […] After 8 h incubation, HUVEC tube-like formation was observed on an inverted microscope (40×) and quantification of network total length was done using ImageJ software. […] Data are expressed as the mean ± SE from at least 3 independent experiments, each performed in triplicate. […] The transcriptional level of TSP-1 was assessed by RT-PCR and normalized to β-actin. […]

[3] = system: BALB/C nu/nu mice; assay: Tolerability in xenograft-bearing mice; type: in vivo, mouse
Method: For the subcutaneous melanoma tumor model, suspensions of B16F1 cells (2.5 × 10^5 cells in 100 μL RPMI-1640 medium) were subcutaneously injected into the left flank of different randomized series of syngeneic C57BL/6 mice (n = 8–10 per group), as previously described. Intraperitoneal administrations of peptide (10 mg/kg mouse weight) or controls (physiological serum 0.9% (w/v) NaCl or a scrambled peptide) were performed at days 3, 5 and 7. In human pancreatic carcinoma xenograft experiments, 3 × 10^6 MIA PaCa-2 cells/mouse were implanted subcutaneously into the left flank of BALB/C athymic nude mice, then TAX2 intraperitoneal treatments (10 mg/kg mouse weight) were performed 3 times a week during 4 weeks starting at day 10 after tumor cells inoculation. Tumor volume was determined according to v = 0.5 A × B^2, where A denotes the largest dimension of the tumor and B represents the smallest dimension. At days indicated, mice were sacrificed and tumors were surgically extracted and fixed in 4% paraformaldehyde for further morphologic studies and for magnetic resonance imaging, or frozen for immunohistochemistry. Mice were also weighed every 2–3 days and daily checked for any modification in their behavior. […]

Sequence: CEVSQLLKGDAC (disulfide) [TAX2, CD47-derived cyclic disulfide dodecapeptide …]
- formation of branching points, capillary tubes and nodal structures ([1]; HUVECs on matrigel, 8 h, S.CORE): decreased
- inhibition of pseudo-tube network formation (total network length) ([1]; HUVECs on matrigel, 8 h, at least 3 experiments in triplicate): 40%
- effect on lumen formation under TSP-1 gene silencing ([1]; HUVECs transfected with siTSP-1, matrigel, 8 h): wholly abolished
- prevention of capillary structure formation in presence of CD36 blocking antibody ([1]; HUVECs, 100 μM, 12 h, anti-CD36 blocking antibody, n = 3): wholly reversed
- microvessel sprouting from the aorta [2]: markedly inhibited
- clinical sign or weight loss ([3]; 10 mg/kg i.p. 3 times a week for 4 weeks): mice did not exhibit any other clinical sign or weight loss
- thrombosis, hemorrhage or embolism in xenograft-bearing mice ([3]; healthy organs, human pancreatic carcinoma model): no signs of thrombosis, hemorrhage or embolism were observed in healthy organs
